The source of these data is patent US6340684B1, “Phthalazine derivatives as phosphodiesterase 4 inhibitors” (Zambon Group S.p.A., priority 1998, dated 2002).

This assay addresses PDE 4 enzyme. Briefly: PDE 4 enzyme inhibition (Scintillation Proximity Assay, enzyme purified from human polymorphonuclear leukocytes). In kind it is biochemical. The settings on record: PDE 4 from human PMNs; SPA, [3H]cAMP, 40 minutes at 30° C.; read-out: IC50 (concentration required to inhibit cyclic nucleotide hydrolysis by 50%). The procedure:
Human polymorphonuclear leukocyte isolation
The polymorphonuclear leukocytes (PMNs) were isolated from peripheral blood of healthy volunteers according to Boyum A. (Scand. J. Immunol., 1976, 5th suppl., 9). Briefly, the PMNs were purified by Ficoll-Paque gradient centrifugation followed by sedimentation on dextran and the erythrocyte contamination was eliminated by hypotonic lysis.
PDE 4 enzyme purification
The human PMNs were suspended in TRIS/HCl buffer (10 mM, pH 7.8) containing MgCl2 (5 mM), EGTA (4 mM), mercaptoethanol (5 mM), TRITON-X100 (1%), pepstatin A (1 μM), PMSF (100 μM) and leupeptin (1 μM), and homogenised by Polytron homogeniser. The homogenate was centrifuged at 25,000×g for 30 minutes at 4° C. and the PDE 4 enzyme was purified by ion exchange chromatography using the FPLC technique according to Schudt C. et al. (Naunyn-Schmidberg's Arch. Pharmacol., 1991, 334, 682). The supernatant was seeded on a UNO Q12 column (Bio-Rad) and the enzyme was eluted by sodium acetate linear gradient from 50 mM to 1M using a flow rate of 4.5 ml/minutes. […]
The enzyme activity was evaluated with a Scintillation Proximity Assay (SPA) kit (Amersham). […]
SPA beads (50 μl) containing 18 mM zinc sulphate were added to stop the reaction and after 20 minutes at room temperature the radioactivity was measured using a scintillation counter. […]

Take `CS(=O)(=O)N1Cc2c(ccc(OC(F)F)c2OC2CCCO2)C(Cc2c(Cl)cncc2Cl)=N1` (stereo not shown) [Compound 10, 1-(3,5-dichloro-pyridin-4-ylmethyl)-3-methansulphonyl-6-difluoromethoxy-5-(tetrahydro-furan-2-yloxy)-4H-phthalazine]: the IC50 was found to be 8 ± 0.5 nM.
